Laboratory results published in paper PMC10584170, “Machine learning-based phenotypic imaging to characterise the targetable biology of Plasmodium falciparum male gametocytes for the development of transmission-blocking antimalarials” (PLOS Pathogens, 2023).
Where two headings read alike, the source gives them in different places.

Experiments:
[1] = tested on: P. falciparum female gametocytes; assay: P. falciparum Dual Gamete Formation Assay (PfDGFA), female readout (Pfs25-positive female gametes); format: cell-based, Plasmodium falciparum NF54; conditions: for Selectivity ratio F: HepG2 Tox50 versus female IC50; for IC50: PfDGFA, 24 h incubation with gametocytes before induction, female gamete readout, read-out: Female IC50; for HitlevelF: number of replicates with >50% inhibition in the female readout
Method in brief: (§1)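 Male and female gamete formation were quantified by microscopy image analysis following 24 h incubation of mature NF54 gametocytes with compound and activation at 28°C with xanthurenic acid.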

[2] = tested on: HepG2 cells; assay: HepG2 cytotoxicity counter-screen; conditions: cytotoxic activity against HepG2 cells
[3] = tested on: P. falciparum male gametocytes; assay: P. falciparum Dual Gamete Formation Assay (PfDGFA), male readout (exflagellation); format: cell-based, Plasmodium falciparum NF54; conditions: for Selectivity Ratio M: HepG2 Tox50 versus male IC50; for IC50: PfDGFA, 24 h incubation with gametocytes before induction, exflagellation readout, read-out: Male IC50; for HitlevelM: number of replicates with >50% inhibition in the male readout
Method in brief: as §1

[4] = PfDGFA at 2µM, 24h preincubation with gametocytes, average of replicates
[5] = PfDGFA at 2µM, 24h preincubation with gametocytes, replicate R1
[6] = PfDGFA at 2µM, 24h preincubation with gametocytes, replicate R3
[7] = PfDGFA at 2µM, 24h preincubation with gametocytes, replicate R4
[8] = Plasmodium falciparum, 2µM, 24h preincubation with gametocytes, average of replicates, read-out: Average inhibition female (%)
[9] = Plasmodium falciparum, 2µM, 24h preincubation with gametocytes, replicate R1, read-out: % inhibition female (individual replicates) R1
[10] = Plasmodium falciparum, 2µM, 24h preincubation with gametocytes, replicate R2, read-out: % inhibition female (individual replicates) R2
[11] = Plasmodium falciparum, 2µM, 24h preincubation with gametocytes, replicate R3, read-out: % inhibition female (individual replicates) R3
[12] = Plasmodium falciparum, 2µM, 24h preincubation with gametocytes, replicate R4, read-out: % inhibition female (individual replicates) R4
[13] = Plasmodium falciparum, 2µM, 24h preincubation with gametocytes, average of replicates, read-out: Average inhibition male (%)
[14] = Plasmodium falciparum, 2µM, 24h preincubation with gametocytes, replicate R1, read-out: % inhibition male (individual replicates) R1
[15] = Plasmodium falciparum, 2µM, 24h preincubation with gametocytes, replicate R2, read-out: % inhibition male (individual replicates) R2
[16] = Plasmodium falciparum, 2µM, 24h preincubation with gametocytes, replicate R4, read-out: % inhibition male (individual replicates) R4

Row | IC50 ([1]; Plasmodium falciparum) | IC50 ([3]; Plasmodium falciparum) | Compound | Selectivity ratio F [1] | HitlevelF ([1]; 2µM) | Tox50 [2] | Selectivity Ratio M [3] | HitlevelM ([3]; 2µM) | inhibition at 2 µM [1, 8] | inhibition at 2 µM [1, 9] | inhibition at 2 µM [1, 10] | inhibition at 2 µM [1, 11] | inhibition at 2 µM [1, 12] | inhibition at 2 µM [3, 13] | inhibition at 2 µM [3, 14] | inhibition at 2 µM [3, 15] | inhibition at 2 µM [3, 16] | further results
1 | > 10 µM | 1.93 µM | CCN(CC)CCOc1ccc(Nc2ncc3cc(-c4c(Cl)cccc4Cl)c(=O)n(C)c3n2)cc1 [TCMDC-140940] | 0.27 | 0 | 2.66 µM | 1.38 | 4 | – | – | – | – | – | – | – | – | – | inhibition at 2 µM ([1]; Plasmodium falciparum, PfDGFA at 2µM, 24h preincubation with gametocytes, average of replicates, read-out: Average inhibition female (%)): -0.6%; inhibition at 2 µM ([1]; Plasmodium falciparum, PfDGFA at 2µM, 24h preincubation with gametocytes, replicate R1, read-out: % inhibition female (individual replicates) R1): -7.5%; inhibition at 2 µM ([1]; Plasmodium falciparum, PfDGFA at 2µM, 24h preincubation with gametocytes, replicate R2, read-out: % inhibition female (individual replicates) R2): 1.2%; inhibition at 2 µM ([1]; Plasmodium falciparum, PfDGFA at 2µM, 24h preincubation with gametocytes, replicate R3, read-out: % inhibition female (individual replicates) R3): -12%; inhibition at 2 µM ([1]; Plasmodium falciparum, PfDGFA at 2µM, 24h preincubation with gametocytes, replicate R4, read-out: % inhibition female (individual replicates) R4): 15.8%; inhibition at 2 µM ([3]; Plasmodium falciparum, PfDGFA at 2µM, 24h preincubation with gametocytes, average of replicates, read-out: Average inhibition male (%)): 72.1%; inhibition at 2 µM ([3]; Plasmodium falciparum, PfDGFA at 2µM, 24h preincubation with gametocytes, replicate R1, read-out: % inhibition male (individual replicates) R1): 72.9%; inhibition at 2 µM ([3]; Plasmodium falciparum, PfDGFA at 2µM, 24h preincubation with gametocytes, replicate R2, read-out: % inhibition male (individual replicates) R2): 64.9%; inhibition at 2 µM ([3]; Plasmodium falciparum, PfDGFA at 2µM, 24h preincubation with gametocytes, replicate R3, read-out: % inhibition male (individual replicates) R3): 74%; inhibition at 2 µM ([3]; Plasmodium falciparum, PfDGFA at 2µM, 24h preincubation with gametocytes, replicate R4, read-out: % inhibition male (individual replicates) R4): 76.8%
2 | 4.1 µM | 0.63 µM | CCN(CC)CCN(Cc1ccc(-c2ccc(C(F)(F)F)cc2)cc1)C(=O)Cn1cc(Cc2cnn(C)c2)c(=O)nc1/C=C/c1cccc(F)c1F.O=C(O)C(O)C(O)C(=O)O [TCMDC-140964] | 3.16 | – | 12.97 µM | 20.63 | – | 36.2% | 34% | 38.6% | 28.7% | 43.5% | 99.3% | 98.8% | 97.8% | 101% | –

The remaining lines, values behind:

Row | Compound | IC50 ([1]; Plasmodium falciparum) | IC50 ([3]; Plasmodium falciparum) | Selectivity ratio F [1] | HitlevelF ([1]; 2µM) | Tox50 [2] | Selectivity Ratio M [3] | HitlevelM ([3]; 2µM) | inhibition at 2 µM [1, 8] | inhibition at 2 µM [1, 9] | inhibition at 2 µM [1, 10] | inhibition at 2 µM [1, 11] | inhibition at 2 µM [1, 12] | inhibition at 2 µM [3, 13] | inhibition at 2 µM [3, 14] | inhibition at 2 µM [3, 15] | inhibition at 2 µM [3, 16] | further results
3 | CC(C)(C)c1ccc(CNC(=O)c2ccc(CNC3CCC(N)CC3)s2)cc1 (stereo not drawn) [TCMDC-140777] | – | – | 1.74 | 1 | 9.32 µM | 7.72 | 4 | – | – | – | – | – | – | – | – | – | Average inhibition female (%) [1, 4]: 32.6%; % inhibition female (individual replicates) R1 [1, 5]: 23.5%; % inhibition female (individual replicates) R3 [1, 6]: 26.9%; % inhibition female (individual replicates) R4 [1, 7]: 56.3%; IC50 [1]: 5.36 µM; Average inhibition male (%) [3, 4]: 76.0%; % inhibition male (individual replicates) R1 [3, 5]: 74.4%; % inhibition male (individual replicates) R3 [3, 6]: 56.4%; % inhibition male (individual replicates) R4 [3, 7]: 93.6%; IC50 [3]: 1.21 µM
4 | CC(C)(CNC(=O)[C@H]1CCCCN1)c1nc(-c2ccc(Cl)c(O)c2)c(-c2ccncc2)[nH]1.Cl [TCMDC-141070] | 1.02 µM | 1.63 µM | 51.37 | – | 52.33 µM | 32.01 | – | – | – | – | – | – | – | – | – | – | HitlevelF ([1]; 2µM, 24h preincubation): 4; inhibition at 2 µM ([1]; Plasmodium falciparum, 2µM, 24h preincubation with gametocytes prior to induction of gametogenesis, average of replicates, read-out: Average inhibition female (%)): 83.6%; inhibition at 2 µM ([1]; Plasmodium falciparum, 2µM, 24h preincubation with gametocytes prior to induction of gametogenesis, replicate R1, read-out: % inhibition female (individual replicates) R1): 71.8%; inhibition at 2 µM ([1]; Plasmodium falciparum, 2µM, 24h preincubation with gametocytes prior to induction of gametogenesis, replicate R2, read-out: % inhibition female (individual replicates) R2): 79.1%; inhibition at 2 µM ([1]; Plasmodium falciparum, 2µM, 24h preincubation with gametocytes prior to induction of gametogenesis, replicate R3, read-out: % inhibition female (individual replicates) R3): 95.8%; inhibition at 2 µM ([1]; Plasmodium falciparum, 2µM, 24h preincubation with gametocytes prior to induction of gametogenesis, replicate R4, read-out: % inhibition female (individual replicates) R4): 87.7%; HitlevelM ([3]; 2µM, 24h preincubation): 1; inhibition at 2 µM ([3]; Plasmodium falciparum, 2µM, 24h preincubation with gametocytes prior to induction of gametogenesis, average of replicates, read-out: Average inhibition male (%)): 20.5%; inhibition at 2 µM ([3]; Plasmodium falciparum, 2µM, 24h preincubation with gametocytes prior to induction of gametogenesis, replicate R1, read-out: % inhibition male (individual replicates) R1): -8.8%; inhibition at 2 µM ([3]; Plasmodium falciparum, 2µM, 24h preincubation with gametocytes prior to induction of gametogenesis, replicate R2, read-out: % inhibition male (individual replicates) R2): -11.5%; inhibition at 2 µM ([3]; Plasmodium falciparum, 2µM, 24h preincubation with gametocytes prior to induction of gametogenesis, replicate R3, read-out: % inhibition male (individual replicates) R3): 48.5%; inhibition at 2 µM ([3]; Plasmodium falciparum, 2µM, 24h preincubation with gametocytes prior to induction of gametogenesis, replicate R4, read-out: % inhibition male (individual replicates) R4): 54%
5 | Cl.NCC1(c2nc(-c3ccc(Cl)c(O)c3)c(-c3ccncc3)[nH]2)CCCCC1 [TCMDC-141154] | 0.43 µM | 0.85 µM | 23.04 | – | 9.89 µM | 11.58 | – | 94.3% | 92.5% | 91.3% | 101% | 92.3% | 99.7% | 95.4% | 103% | 105% | inhibition at 2 µM ([3]; Plasmodium falciparum, 2µM, 24h preincubation with gametocytes, replicate R3, read-out: % inhibition male (individual replicates) R3): 95.7%
